Data: patent publication US8211470B2, “Method for preparing nano-scale or amorphous particle using solid fat as a solvent” (Bio-Synectics Inc., priority 2003, dated 2012)

Assay: Particle size of the final powder dispersed in distilled water, particle size analyzer (Mastersizer Microplus)
Format: physicochemical
Description: Next, the pressure inside the collecting reactor containing the sprayed solid powders was elevated to about 150 atm by adding carbon dioxide gas into the collecting reactor. The pressure inside the collecting reactor was constantly maintained to the pressure of 100 atm or more by controlling a vent valve of the collecting reactor, while continuously adding the carbon dioxide gas. Under the constantly maintained pressure, the cetyl alcohol used as a solid fat was extracted for 8 hours with the gas of the supercritical fluid to obtain 1.8 g of fat-removed fine solid particles. The particle size of the obtained powdered mixture was determined by a particle size analyzer (Mastersizer Microplus) by dispersing the obtained powdered mixture into distilled water, and the result was shown in Table 1.
30 g of cetyl alcohol and 2 g of ketoconazole were placed into a 250 ml volume beaker and heated to 80° C. with stirring until the mixture became completely melt to form a transparent liquid. After completely melting the mixture, additional stirring for about 10 minutes was further carried out for homogeneous mixing. Then, the melted mixture was poured into a stainless steel plate which was precooled to 10° C. or less for rapid cooling and solidifying, thereby obtaining the solid product in which the active ingredient was dispersed uniformly into the fat in the form of fine particles. […]

## CC(=O)N1CCN(c2ccc(OCC3COC(Cn4ccnc4)(c4ccc(Cl)cc4Cl)O3)cc2)CC1 (stereo not shown) [Raw material (Active ingredient), ketoconazole]
  Average particle size: 10.41 μm
